The values below come from ChEMBL document CHEMBL1135031, “Sequestration of bacterial lipopolysaccharide by bis(Args) gemini compounds” (Bioorg Med Chem Lett, 2002).

Structures are written as SMILES. ≈ marks a conversion by molar mass, not a printed value.

Data set [1] has as its system Mus musculus. Put plainly: Tested for protective effect in D-galactosamine (800 mg/kg) sensitized mice injected with lipopolysaccharides at 20 ng/mouse and compound dose of 0 ug/mouse (ip); 5/5 (dead/ Total mice). The format is functional.
Data set [2] concerns J774.A1. Put plainly: Inhibition of TNF-a production by J774.A1 cells stimulated for 18 hr with Escherichia coli O111:B4 LPS (25 ng/mL). The format is functional. The conditions noted are these: Mus musculus, J774.A1, 18 h; read-out: ED50 (the source's name).
For data set [3], the system named is Mus musculus. Put plainly: Tested for protective effect in D-galactosamine (800 mg/kg) sensitized mice injected with lipopolysaccharides at 40 ng/mouse and compound dose of 40 ug/mouse (ip); 6/10 (dead/ Total mice). The format is functional.
The subject of data set [4] is Mus musculus. Put plainly: Tested for protective effect in D-galactosamine (800 mg/kg) sensitized mice injected with lipopolysaccharides at 0 ng/mouse and compound dose of 10 ug/mouse (ip); 0/5 (dead/ Total mice). The format is functional.
The nature of data set [5]: Dose that resulted in 100% lethality in murine model of CF-1 mice. The format is ADME. The following applies: mouse, in vivo.
The test system of data set [6] is Mus musculus. Put plainly: Tested for protective effect in D-galactosamine (800 mg/kg) sensitized mice injected with lipopolysaccharides at 20 ng/mouse and compound dose of 40 ug/mouse (ip); 0/10 (dead/ Total mice). The format is functional.
The test system of data set [7] is Mus musculus. Put plainly: Tested for protective effect in D-galactosamine (800 mg/kg) sensitized mice injected with lipopolysaccharides at 0 ng/mouse and compound dose of 40 ug/mouse (ip); 0/5 (dead/ Total mice). It counts as functional.
Data set [8] concerns Mus musculus. Put plainly: Tested for protective effect in D-galactosamine (800 mg/kg) sensitized mice injected with lipopolysaccharides at 20 ng/mouse and compound dose of 10 ug/mouse (ip); 7/10 (dead/ Total mice). The format is functional.
Data set [9] concerns Mus musculus. Put plainly: Tested for protective effect in D-galactosamine (800 mg/kg) sensitized mice injected with lipopolysaccharides at 40 ng/mouse and compound dose of 0 ug/mouse (ip); 5/5 (dead/ Total mice). The format is functional.
Data set [10] concerns Mus musculus. Put plainly: Tested for protective effect in D-galactosamine (800 mg/kg) sensitized mice injected with lipopolysaccharides at 40 ng/mouse and compound dose of 10 ug/mouse (ip); 9/10 (dead/ Total mice). It counts as functional.

Regarding `CCCCCCCCCCCC(=O)N[C@@H](CCCN=C(N)N)C(=O)NCCCCCCCCCNC(=O)[C@H](CCCN=C(N)N)NC(=O)CCCCCCCCCCC`, the Lethality in data set [1] stood at 5; in data set [3], 6; in data set [4], 0; in data set [6] it was 0; in [7], 0; in [8], 7. Besides, the Lethality in [9] was 5; in data set [10] it was 9. In addition, the EC50 in data set [2] came to 2.5 mg/L (≈ 2.99 µM). Also, in data set [5], the Lethal dose came to 10 ng/mL.

For the compound `CCCCCCCCCCCC(=O)N[C@@H](CCCN=C(N)N)C(=O)NCCCCCCNC(=O)[C@H](CCCN=C(N)N)NC(=O)CCCCCCCCCCC`, the EC50 in data set [2] amounted to 1.4 mg/L (≈ 1.77 µM).
